Source: paper PMC12822184, “Targeting E2F8 sensitizes gemcitabine-resistant gallbladder cancer to PARP inhibitors by disrupting RRM2-driven DNA repair” (Journal of Experimental & Clinical Cancer Research : CR, 2025)

Key:
E2F8 DNA-binding domain [1] = target: T1, E2F8 DNA-binding domain (Homo sapiens, UniProt A0AVK6, R156A/R314A); assay: SPR (Biacore 8K, CM5 amine coupling, steady-state […])
T1 construct: N-terminal thioredoxin-6xHis tag removed by TEV protease; E. coli Rosetta (DE3) pLysS
T1 sequence (A0AVK6 110-350 R156A/R314A): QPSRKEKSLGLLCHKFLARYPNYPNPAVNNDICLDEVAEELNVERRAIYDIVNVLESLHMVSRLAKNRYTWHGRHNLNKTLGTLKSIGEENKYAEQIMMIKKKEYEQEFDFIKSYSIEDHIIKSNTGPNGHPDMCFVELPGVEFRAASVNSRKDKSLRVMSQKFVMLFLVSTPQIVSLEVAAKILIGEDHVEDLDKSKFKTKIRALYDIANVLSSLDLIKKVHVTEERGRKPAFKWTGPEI

E2F8 DNA-binding domain [2] = target: T2, E2F8 DNA-binding domain (Homo sapiens, UniProt A0AVK6); assay: as above
T2 construct: N-terminal thioredoxin-6xHis tag removed by TEV protease; E. coli Rosetta (DE3) pLysS
T2 sequence (A0AVK6 110-350): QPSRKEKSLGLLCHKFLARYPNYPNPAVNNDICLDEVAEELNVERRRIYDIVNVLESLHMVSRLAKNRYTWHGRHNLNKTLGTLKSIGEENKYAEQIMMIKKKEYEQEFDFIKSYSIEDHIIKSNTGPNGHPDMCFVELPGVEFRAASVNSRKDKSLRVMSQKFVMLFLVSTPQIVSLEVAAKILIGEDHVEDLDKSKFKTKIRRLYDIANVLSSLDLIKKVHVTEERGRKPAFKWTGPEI

Molecule `O=C(Nc1ccccc1C(=O)O)c1cccc(N2C(=O)c3ccc(C(=O)Nc4ccccc4C(=O)O)cc3C2=O)c1` [HIT-4] has a Kd (E2F8 DNA-binding domain [1]) of 7.96 µM and a Kd (E2F8 DNA-binding domain [2]) of 0.15 µM.
